Reference: patent US20160153052A1, “MARKER TO PREDICT AND MONITOR RESPONSE TO AURORA KINASE B INHIBITOR THERAPY” (AbbVie Inc., priority 2014, published 2016)

How the values were obtained:
OCI-AML2 cells = assay: Drug sensitivity of OCI-AML2 cells after p16 shRNA knockdown; format: cell-based; conditions: p16 shRNA versus control shRNA, mimics CDKN2A deletion (FIG. 7)
Method: OCI AML2 cells were infected with control or three p16 shRNA from Sigma (MO). Infected cells were selected with 1 μM puromycin. After selection, cells were used in drug treatment experiments. All cells were maintained at 37° C. in 5% CO2.
One gene product of the CDKN2A locus is p16. Therefore shRNA was used to decrease p16 expression to mimic a situation of CDKN2A deletion. […] Given ABT-348 is a dual inhibitor of VEGF and Aurora kinase B inhibitors, ABT-869, which inhibits VEGF but not Aurora kinase B inhibitors was included to confirm the effect was specific to Aurora kinase B inhibitors inhibition.

[1] = tested on: panel of cell lines with and without CDKN2A deletion; assay: Sensitivity to Aurora kinase inhibitors in a panel of cell lines with and without CDKN2A deletion; format: cell-based; conditions: cell line panel (FIG. 4 bottom left, FIG. 6)
Method: AML cell lines were obtained from the American Type Culture Collection (ATCC; Manassas, Va.) and propagated according to ATCC recommendations.
Based on observation, it was hypothesized that patient samples with a high proportion of cells in G2/M (ie. cycling) would be sensitive to ABT-348. Therefore, a database search was performed to identify genotypes likely to overexpress Aurora kinase B given its expression is increased in M phase of cell cycle (top left). […] Data from Cancer Cell Line Encyclopedia (CCLE) supported this hypothesis (top right). Sensitivity to Aurora kinase inhibitors including ABT-348 was assessed in a panel of cell lines with and without this deletion (bottom left). […] CDKN2A status was then assessed by in situ hybridization in patient samples from ABT-348 trials. An example from one patient is shown (bottom right).

[2] = tested on: cycling cells in blood of patients; assay: Flow cytometry of patient blood, pharmacodynamic activity (≧4N cells); format: in vivo, human; conditions: patients treated with ABT-348; associated with percentage of cycling cells at baseline (FIG. 3)
Method: Blood of patients was added to lyse fix buffer (BD Biosciences). After lysis of red blood cells, the sample was washed, and permeabilized using Phosflow Perm/wash buffer (BD Biosciences). The sample was incubated for 15 minutes with DAPI (75 ng/mL) before analyzing on a flow cytometer.

hematologic malignancies = assay: Phase 1 clinical trial of ABT-348 in subjects with hematologic malignancies, CDKN2A status of objective responders; format: in vivo, human; conditions: three patients assessed had deletion of CDKN2A (FIG. 2)
Description: Three patients assessed had deletion of CDKN2A.

Description for solid tumors: The Y axis list best % tumor change from baseline and the X axis are % tumor cells assessed with a deletion in CDKN2A. The hashed line indicates a putative cutoff separating patients with deletion from those without. […] Threshold to define deletion is <1.2 copies.

Row | Structure (SMILES) | sensitivity of OCI-AML2 cells after p16 knockdown (silencing p16 sensitizes) (OCI-AML2 cells) | sensitivity of cell lines with CDKN2A deletion versus without [1] | pharmacodynamics activity [2] | discontinuation due to toxicity (solid tumors; human, in vivo) | tumor response in patients without a CDKN2A deletion (solid tumors; solid tumors, patients without deletion (FIG. 1)) | clinical response in patients with a deletion of CDKN2A (solid tumors; solid tumors, three patients showed a deletion of CDKN2A, best % tumor change from baseline (FIG. 1)) | objective response in patients with deletion of CDKN2A (hematologic malignancies)
1 | Cc1ccc(F)c(NC(=O)Nc2ccc(-c3cccc4[nH]nc(N)c34)cc2)c1 [ABT-869] | not |  |  |  |  |  | 
2 | Nc1ncc(-c2cnn(CCO)c2)c2scc(-c3ccc(NC(=O)Nc4cccc(F)c4)cc3)c12 [ABT-348, 1-(4-(4-amino-7-(1-(2-hydroxyethyl)-1H-pyrazol-4-yl)thieno[3,2-c]pyridin-3-yl)phenyl)-3-(3-fluorophenyl)urea] | more sensitive | more sensitive | increase in the number of ≧4N cells | the third discontinued due to toxicity | No patient without a deletion demonstrated a tumor response | Two of these patients had a clinical response | One patient obtained a complete response, and the others had a partial response
3 | CCN(CCCOc1ccc2c(Nc3cc(CC(=O)Nc4cccc(F)c4)n[nH]3)ncnc2c1)CCOP(=O)(O)O [AZD-1152, 2-[[3-({4-[(5-{2-[(3-Fluorophenyl)amino]-2-oxoethyl}-1H-pyrazol-3-yl)amino]-quinazolin-7-yl}oxy)propylliethyl)amino]ethyl dihydrogen phosphate] | more sensitive |  |  |  |  |  | 
